Results reported in patent US20080312277A1, “Gpr41 and Modulators Thereof for the Treatment of Insulin-Related Disorders” (priority 2004, published 2008).

Legend:
GPR41 = target: T1, GPR41 (Homo sapiens, UniProt O14843); details: Brown et al., J. Biol. Chem. 278:11312-11319 (2003); cited from earlier work
T1 sequence (O14843 1-346): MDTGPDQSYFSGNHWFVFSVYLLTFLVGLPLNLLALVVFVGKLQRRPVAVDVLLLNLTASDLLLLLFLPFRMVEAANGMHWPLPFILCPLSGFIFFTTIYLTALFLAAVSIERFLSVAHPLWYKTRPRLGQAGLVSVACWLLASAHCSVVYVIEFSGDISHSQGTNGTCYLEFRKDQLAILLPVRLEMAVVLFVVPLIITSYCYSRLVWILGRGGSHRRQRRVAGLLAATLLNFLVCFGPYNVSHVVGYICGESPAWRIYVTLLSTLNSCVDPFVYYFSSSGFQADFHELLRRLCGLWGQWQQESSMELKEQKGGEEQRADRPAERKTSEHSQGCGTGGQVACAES

male C57b1/6 mice = assay: Oral glucose tolerance test (oGTT); format: in vivo; details: p.o. 30 min before oral dextrose 3 g/kg, FIG. 8
Method: For the oGTT, male C57b1/6 mice were fasted for about 18 hours and randomly grouped to receive the compounds indicated in FIG. 8 at the indicated doses, or vehicle (PET which contains 80% PEG, 10% Tween80, and 10% Ethanol). The indicated compound(s) were delivered orally via a gavage needle (p.o. volume at 100 μl). Thirty minutes after administration of the compound(s) or vehicle, mice were administered orally with dextrose at 3 g/kg dose. Levels of blood glucose were determined at several time points using Glucometer Elite XL (Bayer).

CCC(=O)O [propionate]
activation of GPR41 (GPR41): activated

CC1=C(C(=O)Nc2ccccc2C)C(c2ccoc2)C2=C(CCCC2=O)N1 (stereo not drawn) [Compound 4, 4-Furan-3-yl-2-methyl-5-oxo-1,4,5,6,7,8-hexahydro-quinoline-3-carboxylic acid o-tolylamide]
effect on the glycemic lowering effect of Compound B111 in the oGTT (plasma glucose) (male C57b1/6 mice; used in conjunction with Compound B111): reversed the glycemic lowering effect of Compound B111

CC(C)c1noc(C2CCN(c3ncnc(Nc4ccc(S(C)(=O)=O)cc4F)c3[N+](=O)[O-])CC2)n1 [Compound B111, (2-Fluoro-4-methanesulfonyl-phenyl)-{6-[4-(3-isopropyl-[1,2,4]oxadiazol-5-yl)-piperidin-1-yl]-5-nitro-pyrimidin-4-yl}-amine]
glycemic effect in the oGTT (male C57b1/6 mice; used alone): glycemic lowering effect
